Results from the SangsterLogP compilation.

SMILES | logP
CC(C)OC(=O)c1ccccc1 | 3.09
CCCCC/C=C\C/C=C\C/C=C\C/C=C\CCCC(=O)O | 6.98
CCCCCC(=O)O | 1.87
CC/C=C\C/C=C\C/C=C\CCCCCCCC(=O)O | 6.46
CCCCCCCCCCCCCCCCCCCC(=O)O | 9.29

Next, values leading:

logP | SMILES
7.05 | CCCCC/C=C\C/C=C\CCCCCCCC(=O)O
7.17 | CCCCCCCCCCCCCCCC(=O)O
6.11 | CCCCCCCCCCCCCC(=O)O
6.58 | CCCCCCC/C=C\CCCCCCC(=O)O
7.64 | CCCCCCCC/C=C\CCCCCCCC(=O)O
8.23 | CCCCCCCCCCCCCCCCCC(=O)O
